The numbers were not newly measured in US7087648B1, “Methods for modulating macrophage proliferation using polyamine analogs” (The Regents of the University of California, priority 1997, dated 2006), which cites them from elsewhere.

One data set has as its system P388 leukemia. The conditions noted are these: mice bearing P388 leukemia; cited from earlier work.
A further data set has as its system leukemic ascites cells. The conditions noted are these: cited from earlier work.
For data set [1], the target named is T1, S-adenosylmethionine decarboxylase (Homo sapiens, UniProt P17707).
T1 sequence (P17707 68-334 limits assumed): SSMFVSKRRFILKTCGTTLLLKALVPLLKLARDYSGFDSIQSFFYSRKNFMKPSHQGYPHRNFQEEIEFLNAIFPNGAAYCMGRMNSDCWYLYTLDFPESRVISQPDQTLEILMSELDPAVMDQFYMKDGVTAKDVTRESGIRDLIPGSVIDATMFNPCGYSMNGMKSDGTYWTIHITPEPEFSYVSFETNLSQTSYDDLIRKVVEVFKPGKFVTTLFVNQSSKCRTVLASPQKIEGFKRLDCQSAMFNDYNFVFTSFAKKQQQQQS
T1 sequence (P17707 1-67 limits assumed): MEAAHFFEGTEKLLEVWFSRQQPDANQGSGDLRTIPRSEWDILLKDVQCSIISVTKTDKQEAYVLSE
To be noted: competing with S-adenosylmethionine; cited from earlier work.

The subject of another data set is spermine synthetase. To be noted: competing with putrescine; cited from earlier work.
Another data set has as its target T2, spermine synthase (Homo sapiens, UniProt P52788).
T2 sequence (P52788 1-366): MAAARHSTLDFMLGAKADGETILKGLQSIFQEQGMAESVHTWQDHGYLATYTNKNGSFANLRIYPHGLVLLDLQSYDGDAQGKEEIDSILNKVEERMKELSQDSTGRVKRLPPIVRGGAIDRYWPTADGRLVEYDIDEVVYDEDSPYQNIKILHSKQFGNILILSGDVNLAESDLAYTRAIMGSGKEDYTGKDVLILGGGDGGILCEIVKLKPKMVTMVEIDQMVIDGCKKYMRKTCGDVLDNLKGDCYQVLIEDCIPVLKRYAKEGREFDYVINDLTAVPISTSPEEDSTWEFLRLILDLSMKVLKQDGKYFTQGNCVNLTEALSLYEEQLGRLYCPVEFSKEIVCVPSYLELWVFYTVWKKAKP
The conditions noted are these: competing with spermidine; cited from earlier work.

Data set [2] relates to rat aortic smooth muscle cells. To be noted: in culture for 8 to 15 days; cited from earlier work.

On to `CC(C=NNC(=N)NC1CCCC1)=NNC(=N)NC1CCCC1` [MGBCP, methylglyoxal-bis(cyclopentylamidinohydrazone)], for which, in the data set on P388 leukemia, the survival time entry is “prolonged survival time”. Besides, the “spermidine and spermine in cells” value in the data set on leukemic ascites cells is on record as “depleted”. In data set [1], the “inhibition of S-adenosylmethionine decarboxylase” value is given as “inhibited”. Further, the “inhibition of spermine synthetase” value with spermine synthetase was “inhibited”. Also, at spermine synthase, the “inhibition of spermine synthase” value was “inhibited”.
Take `CCNCCCNCCCNCCCNCC` [Bis-ethyl norspermine, 1,11 -bis(ethyl)norspermine]: the cell growth entry in data set [2] is listed as “inhibit the growth”.
